Laboratory results published in ChEMBL document CHEMBL4420076, “Amylin and calcitonin receptor agonist” (2017).
pEC50, pIC50: −log10 of the molar value. Numbered stars: 1 amine (or outer) side, 2 acyl side, 3 side chain; on linkers, the order of the positions; unused ones are H or OH. Peptide text beside a SMILES is read from it. * marks the point of attachment. C20 diacid = O=C(O)CCCCCCCCCCCCCCCCCCC(=O)*; C18 diacid = O=C(O)CCCCCCCCCCCCCCCCC(=O)*; γGlu = O=C(O)[C@H](CCC(=O)[*:2])N[*:1]; C14 diacid = O=C(O)CCCCCCCCCCCCC(=O)*

What was measured:
Calcitonin receptor [1] = target: T1, Calcitonin receptor (Homo sapiens, UniProt P30988); test: Agonist activity at human calcitonin receptor expressed in BHK570 cells assessed as increase in intracellular cAMP concentration incubated for 3 hrs in absence of albumin by CRE luciferase reporter gene assay; assay type: functional, cell-based
T1 sequence (P30988 whole entry): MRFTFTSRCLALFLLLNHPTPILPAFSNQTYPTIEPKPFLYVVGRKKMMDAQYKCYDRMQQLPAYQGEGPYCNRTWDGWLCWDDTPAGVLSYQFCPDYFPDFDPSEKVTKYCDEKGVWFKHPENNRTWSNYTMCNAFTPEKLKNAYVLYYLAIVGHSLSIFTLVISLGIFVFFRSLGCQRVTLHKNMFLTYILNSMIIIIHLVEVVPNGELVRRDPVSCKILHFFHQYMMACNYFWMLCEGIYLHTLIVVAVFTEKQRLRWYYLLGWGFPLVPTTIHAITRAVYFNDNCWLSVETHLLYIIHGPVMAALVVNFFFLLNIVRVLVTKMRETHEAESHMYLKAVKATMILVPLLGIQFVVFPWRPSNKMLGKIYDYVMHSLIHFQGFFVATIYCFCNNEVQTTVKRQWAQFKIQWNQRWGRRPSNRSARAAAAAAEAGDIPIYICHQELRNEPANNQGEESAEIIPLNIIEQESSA

[2] = Stability in pH 7.5 buffer assessed as lag time for fibril formation at 1 uM by Thioflavin T based fluorescence assay; assay type: physicochemical; settings: pH 7.5, 1 µM
[3] = Solubility in 100 mM bistrispropane buffer at pH 7.5 incubated for 18 hrs by UPLC analysis; assay type: physicochemical
[4] = Solubility in 100 mM bistrispropane buffer at pH 6.5 incubated for 18 hrs by UPLC analysis; assay type: physicochemical
[5] = target: T2, Amylin receptor AMY3; CALCR/RAMP3 (Homo sapiens, UniProt O60896+P30988); test: Agonist activity at human amylin receptor expressed in BHK570 cells co-expressing RAMP3 assessed as increase in intracellular cAMP concentration incubated for 3 hrs in absence of albumin by CRE luciferase reporter gene assay; assay type: functional, cell-based
T2 sequence (P30988 whole entry): T1 sequence (P30988 whole entry)
T2 sequence (O60896 whole entry): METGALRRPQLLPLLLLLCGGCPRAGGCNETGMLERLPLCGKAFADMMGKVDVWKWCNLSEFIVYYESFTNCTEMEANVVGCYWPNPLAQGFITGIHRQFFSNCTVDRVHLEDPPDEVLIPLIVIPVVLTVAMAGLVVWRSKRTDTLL

Calcitonin receptor [6] = target: T1, Calcitonin receptor; test: Displacement of [125I]-labeled human calcitonin from human calcitonin receptor expressed in BHK tkts13 cell membranes incubated for 1 hr by scintillation proximity assay
[7] = Solubility in 100 mM bistrispropane buffer at pH 8.0 incubated for 18 hrs by UPLC analysis; assay type: physicochemical
[8] = Solubility in 100 mM glycylglycine buffer at pH 3.0 incubated for 18 hrs by UPLC analysis; assay type: physicochemical
[9] = target: T2, Amylin receptor AMY3; CALCR/RAMP3; test: Displacement of [125I]-labeled rat amylin from human amylin receptor expressed in BHK570 cell membranes co-expressing RAMP3 incubated for 120 mins by scintillation proximity assay
[10] = Solubility in 100 mM glycylglycine buffer at pH 4.0 incubated for 18 hrs by UPLC analysis; assay type: physicochemical
[11] = Solubility in 100 mM bistrispropane buffer at pH 7.0 incubated for 18 hrs by UPLC analysis; assay type: physicochemical
[12] = Solubility in 100 mM glycylglycine buffer at pH 5.0 incubated for 18 hrs by UPLC analysis; assay type: physicochemical
[13] = target: T3, Amylin receptor AMY3; CALCR/RAMP3 (Rattus norvegicus, UniProt P32214+Q9JJ73); test: Displacement of [125I]-labeled rat amylin from rat amylin receptor expressed in BHK tkts13 cell membranes co-expressing RAMP3 incubated for 120 mins by scintillation proximity assay
T3 sequence (P32214 whole entry): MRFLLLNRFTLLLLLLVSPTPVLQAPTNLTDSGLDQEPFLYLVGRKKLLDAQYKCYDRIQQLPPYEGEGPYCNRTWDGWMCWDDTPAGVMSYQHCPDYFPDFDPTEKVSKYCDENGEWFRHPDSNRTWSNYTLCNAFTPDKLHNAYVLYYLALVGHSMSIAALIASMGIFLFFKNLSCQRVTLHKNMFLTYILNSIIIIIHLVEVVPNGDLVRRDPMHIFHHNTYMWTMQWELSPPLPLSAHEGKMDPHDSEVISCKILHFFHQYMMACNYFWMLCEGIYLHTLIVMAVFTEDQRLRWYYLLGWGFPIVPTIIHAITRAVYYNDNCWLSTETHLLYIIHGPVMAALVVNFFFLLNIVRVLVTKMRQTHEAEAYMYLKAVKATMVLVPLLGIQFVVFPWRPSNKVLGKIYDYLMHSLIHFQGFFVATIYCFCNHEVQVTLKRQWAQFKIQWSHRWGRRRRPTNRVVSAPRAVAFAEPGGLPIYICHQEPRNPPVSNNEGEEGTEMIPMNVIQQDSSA
T3 sequence (Q9JJ73 whole entry): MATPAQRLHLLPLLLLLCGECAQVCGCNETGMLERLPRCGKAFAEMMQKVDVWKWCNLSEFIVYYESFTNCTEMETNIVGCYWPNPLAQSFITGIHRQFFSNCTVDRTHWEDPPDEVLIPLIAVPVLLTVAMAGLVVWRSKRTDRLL

[14] = Solubility in 100 mM bistrispropane buffer at pH 6.0 incubated for 18 hrs by UPLC analysis; assay type: physicochemical
[15] = Stability in pH 7.5 buffer assessed as compound recovery at 1 uM by Thioflavin T based fluorescence assay; assay type: physicochemical; settings: read-out: Drug recovery
Rattus norvegicus [16] = test: Reduction in food intake in Sprague-Dawley rat at 3 nmol/kg measured 0 to 24 hrs post dose relative to control; assay type: functional; design: scale not given: the % may be the effect or the level left
Rattus norvegicus [17] = test: Reduction in food intake in Sprague-Dawley rat at 3 nmol/kg measured 24 to 48 hrs post dose relative to control; assay type: functional; design: scale not given: the % may be the effect or the level left
[18] = target: T2, Amylin receptor AMY3; CALCR/RAMP3; test: Agonist activity at human amylin receptor expressed in BHK570 cells co-expressing RAMP3 assessed as increase in intracellular cAMP concentration incubated for 3 hrs in presence of 10% FBS by CRE luciferase reporter gene assay; assay type: functional, cell-based
Calcitonin receptor [19] = target: T1, Calcitonin receptor; test: Agonist activity at human calcitonin receptor expressed in BHK570 cells assessed as increase in intracellular cAMP concentration incubated for 3 hrs in presence of 10% FBS by CRE luciferase reporter gene assay; assay type: functional, cell-based
[20] = target: T2, Amylin receptor AMY3; CALCR/RAMP3; test: Displacement of [125I]-labeled rat amylin from human amylin receptor expressed in BHK tkts13 whole cells co-expressing RAMP3 incubated for 60 mins by scintillation proximity assay; assay type: cell-based

pEC50 (Calcitonin receptor [1])	Time [2] [h]	solubility at 18 h [3] [µM]	solubility at 18 h [4] [µM]	pEC50 [5]	pIC50 (Calcitonin receptor [6])	solubility at 18 h [7] [µM]	solubility at 18 h [8] [µM]	pIC50 [9]	solubility at 18 h [10] [µM]	solubility at 18 h [11] [µM]	solubility at 18 h [12] [µM]	pIC50 [13]	solubility at 18 h [14] [µM]	remaining at 1 µM [15] [%]	pEC50 [18]	pEC50 (Calcitonin receptor [19])	pIC50 [20]	SMILES	Activity (Rattus norvegicus [16]) [%]	Activity (Rattus norvegicus [17]) [%]
11.40	> 45	≥ 200	≥ 200	11.22	10.64	≥ 200	≥ 200	10.27	≥ 200	≥ 200	≥ 200	9.91	≥ 200	98	–	–	–	CC(C)C[C@H](NC(=O)[C@H](C)NC(=O)[C@H](C)NC(=O)[C@@H](NC(=O)[C@H](CO)NC(=O)[C@H](CC(C)C)NC(=O)[C@H](CCC(=O)O)NC(=O)[C@H](CO)NC(=O)[C@H](C)NC(=O)CC[C@H](NC(=O)CCCCCCCCCCCCC(=O)O)C(=O)O)[C@@H](C)O)C(=O)NCC(=O)N[C@@H](CCCNC(=N)N)C(=O)N[C@@H](CC(C)C)C(=O)N[C@@H](CO)C(=O)N[C@@H](C)C(=O)N[C@@H](CCC(=O)O)C(=O)N[C@@H](CC(C)C)C(=O)N[C@@H](Cc1cnc[nH]1)C(=O)N[C@@H](CCC(=O)O)C(=O)N[C@@H](CC(C)C)C(=O)N[C@@H](C)C(=O)N[C@H](C(=O)N[C@@H](CC(C)C)C(=O)N1CCC[C@H]1C(=O)N[C@@H](CCCNC(=N)N)C(=O)N[C@H](C(=O)N[C@@H](CCC(=O)O)C(=O)N[C@H](C(=O)NCC(=O)N[C@@H](CO)C(=O)NCC(=O)N[C@@H](CO)C(=O)N1CCC[C@H]1C(N)=O)[C@@H](C)O)[C@@H](C)O)[C@@H](C)O ({C14 diacid-γGlu}-ASELSTAALGRLSAELHELATLPRTETGSGSP-NH2)	–	–
10.77	–	≥ 200	≥ 200	10.74	10.47	≥ 200	≥ 200	10.11	≥ 200	≥ 200	≥ 200	10.20	≥ 200	–	11.05	11.10	–	CC(C)C[C@H](NC(=O)[C@H](C)NC(=O)[C@H](C)NC(=O)[C@@H](NC(=O)[C@H](CO)NC(=O)[C@H](CC(C)C)NC(=O)[C@H](CCC(=O)O)NC(=O)[C@H](CO)NC(=O)[C@H](C)NC(=O)CCCCCCCCCCCCCCCCC(=O)O)[C@@H](C)O)C(=O)NCC(=O)N[C@@H](CCCNC(=N)N)C(=O)N[C@@H](CC(C)C)C(=O)N[C@@H](CO)C(=O)N[C@@H](C)C(=O)N[C@@H](CCC(=O)O)C(=O)N[C@@H](CC(C)C)C(=O)N[C@@H](Cc1cnc[nH]1)C(=O)N[C@@H](CCC(=O)O)C(=O)N[C@@H](CC(C)C)C(=O)N[C@@H](C)C(=O)N[C@H](C(=O)N[C@@H](CC(C)C)C(=O)N1CCC[C@H]1C(=O)N[C@@H](CCCNC(=N)N)C(=O)N[C@H](C(=O)N[C@@H](CCC(=O)O)C(=O)N[C@H](C(=O)NCC(=O)N[C@@H](CO)C(=O)NCC(=O)N[C@@H](CO)C(=O)N1CCC[C@H]1C(N)=O)[C@@H](C)O)[C@@H](C)O)[C@@H](C)O ({C18 diacid}-ASELSTAALGRLSAELHELATLPRTETGSGSP-NH2)	52	11
10.92	–	≥ 200	≥ 200	10.77	10.01	≥ 200	≥ 200	9.25	≥ 200	≥ 200	≥ 200	8.82	≥ 200	–	–	10.32	9.16	CC(C)C[C@H](NC(=O)[C@H](C)NC(=O)[C@H](C)NC(=O)[C@@H](NC(=O)[C@H](CO)NC(=O)[C@H](CC(C)C)NC(=O)[C@H](CCC(=O)O)NC(=O)[C@H](CO)NC(=O)[C@H](C)NC(=O)CC[C@H](NC(=O)CCCCCCCCCCCCCCCCCCC(=O)O)C(=O)O)[C@@H](C)O)C(=O)NCC(=O)N[C@@H](Cc1cnc[nH]1)C(=O)N[C@@H](CC(C)C)C(=O)N[C@@H](CO)C(=O)N[C@@H](C)C(=O)N[C@@H](CCC(=O)O)C(=O)N[C@@H](CC(C)C)C(=O)N[C@@H](Cc1cnc[nH]1)C(=O)N[C@@H](CCC(=O)O)C(=O)N[C@@H](CC(C)C)C(=O)N[C@@H](C)C(=O)N[C@H](C(=O)N[C@@H](CC(C)C)C(=O)N1CCC[C@H]1C(=O)N[C@@H](CCCNC(=N)N)C(=O)N[C@H](C(=O)N[C@@H](CCC(=O)O)C(=O)N[C@H](C(=O)NCC(=O)N[C@@H](CO)C(=O)NCC(=O)N[C@@H](CO)C(=O)N1CCC[C@H]1C(N)=O)[C@@H](C)O)[C@@H](C)O)[C@@H](C)O ({C20 diacid-γGlu}-ASELSTAALGHLSAELHELATLPRTETGSGSP-NH2)	17	11
10.57	–	≥ 200	≥ 200	10.39	9.82	≥ 200	≥ 200	9.78	≥ 200	≥ 200	–	10.59	≥ 200	–	–	10.00	9.85	CC(C)C[C@H](NC(=O)CNC(=O)[C@H](CO)NC(=O)[C@H](C)NC(=O)CC[C@H](NC(=O)CCCCCCCCCCCCCCCCCCC(=O)O)C(=O)O)C(=O)N[C@@H](CO)C(=O)N[C@H](C(=O)N[C@@H](C)C(=O)N[C@@H](C)C(=O)N[C@@H](CC(C)C)C(=O)NCC(=O)N[C@@H](CCCNC(=N)N)C(=O)N[C@@H](CC(C)C)C(=O)N[C@@H](CO)C(=O)N[C@@H](CCC(N)=O)C(=O)N[C@@H](CCC(=O)O)C(=O)N[C@@H](CC(C)C)C(=O)N[C@@H](Cc1cnc[nH]1)C(=O)N[C@@H](CCC(=O)O)C(=O)N[C@@H](CC(C)C)C(=O)N[C@@H](CCC(N)=O)C(=O)N[C@H](C(=O)N[C@@H](Cc1ccc(O)cc1)C(=O)N1CCC[C@H]1C(=O)N[C@@H](Cc1cnc[nH]1)C(=O)N[C@H](C(=O)N[C@@H](CCC(=O)O)C(=O)N[C@H](C(=O)NCC(=O)N[C@@H](CO)C(=O)NCC(=O)N[C@H](C(=O)N[C@@H](Cc1ccc(O)cc1)C(N)=O)[C@@H](C)O)[C@@H](C)O)[C@@H](C)O)[C@@H](C)O)[C@@H](C)O ({C20 diacid-γGlu}-ASGLSTAALGRLSQELHELQTYPHTETGSGTY-NH2)	20	14
